Data taken from ChEMBL document CHEMBL4190376, “Mapping the Efficiency and Physicochemical Trajectories of Successful Optimizations” (J Med Chem, 2018).
In brackets after ≈: the same amount, converted by molar mass. Blank lines part the entries; values can stand above or below the molecule they belong to.

How the values were obtained:
[1] = Ratio of drug level in rat liver to plasma; assay type: ADME
[2] = Oral bioavailability in rat; assay type: ADME, organism-based; conditions: in vivo
[3] = Lipophilicity, log D of the compound at pH 7.4 by chromatographic method; assay type: physicochemical; conditions: buffer
physchem = conditions: aqueous
[4] = Oral bioavailability in human; assay type: ADME, organism-based; conditions: in vivo
[5] = Solubility of the compound in pH 7.4 solution; assay type: physicochemical
[6] = Solubility of the compound in FaSSIF; assay type: physicochemical

Kp [1]: 5 | bioavailability [2]: 50%
SMILES: COC(=O)N[C@H](C(=O)N1CCC[C@H]1c1nc(-c2ccc(-c3ccc(-c4c[nH]c([C@@H]5CCCN5C(=O)[C@@H](NC(=O)OC)C(C)C)n4)cc3)cc2)c[nH]1)C(C)C

chromatographic logD [3]: 6.4
SMILES: COc1cc2c(cc1Cc1cccc(Cl)c1F)c(=O)c(C(=O)O)cn2[C@H](CO)C(C)C

Second part, the molecule before the results:

SMILES: CCC[C@H](NC(=O)[C@@H]1[C@H]2CCC[C@H]2CN1C(=O)[C@@H](NC(=O)[C@@H](NC(=O)c1cnccn1)C1CCCCC1)C(C)(C)C)C(=O)C(=O)NC1CC1
solubility (physchem): 4.7 µg/mL (≈ 6.91 µM)

SMILES: Cc1nnc(C(=O)NC(C)(C)c2nc(C(=O)NCc3ccc(F)cc3)c(O)c(=O)n2C)o1
chromatographic logD [3]: 3.3

SMILES: Cc1nnc(C(C)C)n1C1C[C@@H]2CC[C@@H](C1)N2CC[C@H](NC(=O)C1CCC(F)(F)CC1)c1ccccc1 (some centres undefined)
bioavailability [4]: 23%

SMILES: C[C@@H]1CCO[C@H]2Cn3cc(C(=O)NCc4ccc(F)cc4F)c(=O)c(O)c3C(=O)N12 [DOLUTEGRAVIR]
chromatographic logD [3]: 3.7

SMILES: CC1(C)CCC(CN2CCN(c3ccc(C(=O)NS(=O)(=O)c4ccc(NCC5CCOCC5)c([N+](=O)[O-])c4)c(Oc4cnc5[nH]ccc5c4)c3)CC2)=C(c2ccc(Cl)cc2)C1 [VENETOCLAX]
solubility [5]: 0.4 µg/mL (≈ 0.461 µM) | solubility [6]: 11 µg/mL (≈ 12.7 µM)
